Experimental data: ChEMBL document CHEMBL1201862, “PubChem BioAssay data set” (2004)
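96-well plates; 48 h exposure; 5 concentrations. Endpoints by linear interpolation between flanking doses. Not reached: highest tested concentration assigned. Abbreviation: GI50, concentration required for 50% inhibition of growth.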 The source made the active and inactive calls. Rule as the data show it: active = GI50 up to about 1.1 µM and inactive = higher.

Legend:
Test in all cases: NCI anticancer screen, dose series, 48 h
NCI-H522 = test system: NCI-H522
LOX IMVI = test system: LOX IMVI
DLD-1 = test system: DLD-1
HOP-92 = test system: HOP-92
OVCAR-8 = test system: OVCAR-8
786-0 = test system: 786-0
SK-OV-3 = test system: SK-OV-3
UACC-257 = test system: UACC-257
CAKI-1 = test system: CAKI-1
CCRF-CEM = test system: CCRF-CEM
K562 = test system: K562
SNB-19 = test system: SNB-19
SN12C = test system: SN12C
SF-268 = test system: SF-268
HCT-116 = test system: HCT-116
HL-60 = test system: HL-60
SR = test system: SR

Measured: GI50

CC(C)c1ccc(/C=C(\NC(=O)c2ccccc2)c2nc3ccccc3[nH]2)cc1
inactive: NCI-H522 26.7 µM | LOX IMVI 27.2 µM | DLD-1 30.3 µM | HOP-92 36.7 µM | OVCAR-8 32.4 µM | 786-0 39.3 µM | SK-OV-3 > 100 µM | UACC-257 35.2 µM | CAKI-1 50.6 µM | CCRF-CEM 34.1 µM | K562 27.5 µM | SNB-19 47.8 µM | SN12C 55 µM | SF-268 41 µM | HCT-116 31.6 µM

c1ccc(C2C3=C(Nc4ncnn42)c2ccccc2C3)cc1 (centres undefined)
inactive: NCI-H522 6.14 µM | LOX IMVI 15.6 µM | DLD-1 14.1 µM | HOP-92 21.8 µM | OVCAR-8 30.8 µM | 786-0 25.4 µM | HL-60 5.07 µM | SK-OV-3 13.2 µM | UACC-257 > 100 µM | CAKI-1 42.3 µM | CCRF-CEM 15.5 µM | K562 7.93 µM | SNB-19 14.9 µM | SN12C 35.3 µM | SF-268 20 µM | HCT-116 12 µM

O=C(O)CCC1CCc2cccc3occ1c23 (centres undefined)
inactive: NCI-H522 > 100 µM | LOX IMVI > 100 µM | DLD-1 > 100 µM | HOP-92 > 100 µM | OVCAR-8 > 100 µM | 786-0 > 100 µM | HL-60 > 100 µM | SK-OV-3 > 100 µM | UACC-257 > 100 µM | CAKI-1 > 100 µM | CCRF-CEM > 100 µM | K562 > 100 µM | SNB-19 > 100 µM | SN12C > 100 µM | SF-268 > 100 µM | HCT-116 > 100 µM

CCc1ccc(/N=C\c2cc(OC)c(OC)c(OC)c2)cc1
inactive: NCI-H522 > 100 µM | LOX IMVI 20.9 µM | DLD-1 77.8 µM | HOP-92 > 100 µM | OVCAR-8 > 100 µM | 786-0 > 100 µM | SK-OV-3 > 100 µM | UACC-257 > 100 µM | CAKI-1 > 100 µM | CCRF-CEM 40.7 µM | K562 26.5 µM | SNB-19 > 100 µM | SN12C > 100 µM | SF-268 > 100 µM | HCT-116 > 100 µM

COc1ccc(/C=C/C(=O)c2c(-c3ccccc3)nn(C)c(=O)c2N2CCCCC2)cc1
inactive: NCI-H522 10.7 µM | LOX IMVI 14.7 µM | DLD-1 16.1 µM | HOP-92 3.81 µM | OVCAR-8 19.5 µM | 786-0 14.2 µM | SK-OV-3 21.4 µM | CAKI-1 31.2 µM | CCRF-CEM 9.95 µM | K562 11.8 µM | SNB-19 18.4 µM | SN12C 20.8 µM | SF-268 19.7 µM | HCT-116 7.31 µM

CCOC(=O)CC1=N/C(=N/c2cc(Cl)ccc2Cl)SC1
inactive: NCI-H522 76.4 µM | LOX IMVI 70.5 µM | DLD-1 91.8 µM | HOP-92 > 100 µM | OVCAR-8 > 100 µM | 786-0 > 100 µM | HL-60 > 100 µM | SK-OV-3 > 100 µM | UACC-257 > 100 µM | CAKI-1 > 100 µM | CCRF-CEM 76.9 µM | K562 42.5 µM | SNB-19 > 100 µM | SN12C > 100 µM | SF-268 > 100 µM | HCT-116 97.9 µM

Nc1c(-c2nc3ccccc3s2)[n+]([O-])c2ccccc2[n+]1[O-]
inactive: NCI-H522 22 µM | DLD-1 33 µM | HOP-92 23.1 µM | OVCAR-8 38.6 µM | 786-0 32.1 µM | HL-60 29.9 µM | SK-OV-3 37 µM | UACC-257 30.8 µM | CAKI-1 25.8 µM | CCRF-CEM 42.6 µM | K562 45.8 µM | SNB-19 29.3 µM | SF-268 26.9 µM | HCT-116 24.3 µM

CC(=O)OC1[C@H]2c3cc4c(cc3CN3CCC(=C[C@@H]1O)C23)OCO4 (some centres undefined)
inactive: NCI-H522 > 100 µM | LOX IMVI > 100 µM | DLD-1 > 100 µM | OVCAR-8 > 100 µM | 786-0 > 100 µM | HL-60 > 100 µM | SK-OV-3 > 100 µM | UACC-257 46.9 µM | CCRF-CEM > 100 µM | K562 > 100 µM | SNB-19 56.8 µM | SN12C > 100 µM | SF-268 37.2 µM | SR > 100 µM

O=C(Nc1ccc(Cl)cc1C(=O)O)c1ccc([N+](=O)[O-])cc1
inactive: LOX IMVI 19.9 µM | DLD-1 7.06 µM | HOP-92 8.18 µM | OVCAR-8 26.7 µM | 786-0 13.4 µM | HL-60 22.4 µM | SK-OV-3 18.2 µM | UACC-257 18.6 µM | CCRF-CEM 20.2 µM | K562 20.8 µM | SNB-19 14.5 µM | SN12C 37.2 µM | SF-268 20.2 µM | HCT-116 12.2 µM

O=C1c2ccc(O)cc2C(=O)c2ccc(O)cc21
inactive: NCI-H522 32.6 µM | LOX IMVI 58.1 µM | DLD-1 38.6 µM | HOP-92 63.1 µM | OVCAR-8 > 100 µM | 786-0 42.7 µM | HL-60 70.5 µM | SK-OV-3 33.2 µM | UACC-257 > 100 µM | CAKI-1 32.9 µM | CCRF-CEM 59.3 µM | K562 50.1 µM | SNB-19 78.9 µM | SN12C 73.5 µM | SF-268 55.3 µM | HCT-116 39.4 µM

CCOC(=O)Nn1c(C)cc(C(=O)OC)c1C
inactive: NCI-H522 > 100 µM | LOX IMVI > 100 µM | DLD-1 > 100 µM | OVCAR-8 > 100 µM | 786-0 > 100 µM | HL-60 > 100 µM | SK-OV-3 > 100 µM | UACC-257 > 100 µM | CAKI-1 > 100 µM | CCRF-CEM > 100 µM | K562 > 100 µM | SNB-19 > 100 µM | SN12C > 100 µM | SF-268 > 100 µM | HCT-116 > 100 µM

Cc1cc2cc(Cl)ccc2nc1C(=O)c1ccccc1
inactive: NCI-H522 > 100 µM | LOX IMVI > 100 µM | DLD-1 > 100 µM | OVCAR-8 > 100 µM | 786-0 > 100 µM | UACC-257 32.4 µM | CAKI-1 > 100 µM | K562 > 100 µM | SNB-19 > 100 µM | SN12C > 100 µM | SF-268 > 100 µM | HCT-116 > 100 µM | SR > 100 µM

O=C1C2c3[nH]c4ccccc4c3[C@@H]3CCCCCCCCCCC3C2C(=O)N1c1ccccc1 (some centres undefined)
inactive: LOX IMVI 16.1 µM | DLD-1 24.5 µM | OVCAR-8 18.1 µM | 786-0 16.1 µM | HL-60 12.1 µM | SK-OV-3 10.4 µM | K562 8.67 µM | SNB-19 12.4 µM | SN12C 18.6 µM | SF-268 13.6 µM | SR 12.8 µM

COc1ccc(C(=O)N2c3ccccc3N(C)n3cccc3C2CC(=O)O)cc1 (centres undefined)
inactive: NCI-H522 > 100 µM | LOX IMVI > 100 µM | DLD-1 > 100 µM | HOP-92 > 100 µM | OVCAR-8 > 100 µM | 786-0 > 100 µM | HL-60 > 100 µM | SK-OV-3 > 100 µM | UACC-257 > 100 µM | CAKI-1 > 100 µM | CCRF-CEM > 100 µM | K562 > 100 µM | SNB-19 > 100 µM | SN12C > 100 µM | SF-268 > 100 µM
